Data: patent US4740601A, “Imidazole derivatives having antimicrobial activities” (SS Pharmaceutical Co., Ltd., priority 1985, dated 1988)
≈ marks a conversion by molar mass, not a printed value.

Columns and labels:
Type in all cases: cell-based
[1] = system: Bacillus subtilis ATCC 6633; assay: antimicrobial activity, MIC; conditions: Bacillus subtilis, ATCC6633, Bacillus subtilis ATCC 6633; read-out: MIC
[2] = system: Staphylococcus aureus FDA 209P; assay: antimicrobial activity, MIC; conditions: Staphylococcus aureus, FDA209P, read-out: MIC
[3] = system: Staphylococcus aureus Terajima; assay: antimicrobial activity, MIC; conditions: Staphylococcus aureus, read-out: MIC
[4] = system: Staphylococcus aureus Smith; assay: antimicrobial activity, MIC; conditions: Staphylococcus aureus, read-out: MIC
[5] = system: Staphylococcus epidermidis ATCC 12228; assay: antimicrobial activity, MIC; conditions: Staphylococcus epidermidis, ATCC12228, Staphylococcus epidermidis ATCC 12228; read-out: MIC
[6] = system: Sarcina lutea ATCC 9341; assay: antimicrobial activity, MIC; conditions: Micrococcus luteus, ATCC9341, Sarcina lutea ATCC 9341; read-out: MIC
[7] = system: Streptococcus faecalis IFO 12964; assay: antimicrobial activity, MIC; conditions: Enterococcus faecalis, IFO12964, Streptococcus faecalis IFO 12964; read-out: MIC
[8] = system: Micrococcus lysodeixticus IFO 3333; assay: antimicrobial activity, MIC; conditions: Micrococcus, IFO3333, Micrococcus lysodeixticus IFO 3333; read-out: MIC
[9] = system: Candida albicans NHL 4019; assay: antimicrobial activity, MIC; conditions: Candida albicans, NHL4019, Candida albicans NHL 4019; read-out: MIC
[10] = system: Candida albicans Yu-1200; assay: antimicrobial activity, MIC; conditions: YU1200, read-out: MIC
[11] = system: Saccharomyces cerevisiae ATCC 9763; assay: antimicrobial activity, MIC; conditions: Saccharomyces cerevisiae, ATCC9763, Saccharomyces cerevisiae ATCC 9763; read-out: MIC
[12] = system: Saccharomyces ruxii 6507; assay: antimicrobial activity, MIC; conditions: Saccharomyces ruxii 6507; read-out: MIC
[13] = system: Aspergillus niger ATCC 9642; assay: antimicrobial activity, MIC; conditions: Aspergillus niger, ATCC9642, Aspergillus niger ATCC 9642; read-out: MIC
[14] = system: Penicillium chrysogenum ATCC 6010; assay: antimicrobial activity, MIC; conditions: Penicillium chrysogenum, ATCC6010, Penicillium chrysogenum ATCC 6010; read-out: MIC
[15] = system: Trichophyton mentagrophytes QM 248; assay: antimicrobial activity, MIC; conditions: Trichophyton mentagrophytes, QM248, Trichophyton mentagrophytes QM 248; read-out: MIC
[16] = system: Trichophyton mentagrophytes IFO 5812; assay: antimicrobial activity, MIC; conditions: Trichophyton mentagrophytes, IFO5812, Trichophyton mentagrophytes IFO 5812; read-out: MIC
[17] = system: Trichophyton tonsurans IFO 5928; assay: antimicrobial activity, MIC; conditions: Trichophyton tonsurans, IFO5928, Trichophyton tonsurans IFO 5928; read-out: MIC
[18] = system: Trichophyton rubrum NHL J; assay: antimicrobial activity, MIC; conditions: Trichophyton rubrum, Trichophyton rubrum NHL J; read-out: MIC
[19] = system: Microsporum gypseum IFO 8231; assay: antimicrobial activity, MIC; conditions: Nannizzia gypsea, IFO8231, Microsporum gypseum IFO 8231; read-out: MIC
[20] = system: Microsporum audounii IFO 6074; assay: antimicrobial activity, MIC; conditions: Microsporum, IFO6074, Microsporum audounii IFO 6074; read-out: MIC
[21] = system: Microsporum cookei IFO 8303; assay: antimicrobial activity, MIC; conditions: Paraphyton cookei, IFO8303, Microsporum cookei IFO 8303; read-out: MIC
[22] = system: Epidermophyton floccosum IFO 9045; assay: antimicrobial activity, MIC; conditions: Epidermophyton floccosum, IFO9045, Epidermophyton floccosum IFO 9045; read-out: MIC
[23] = system: Aspergillus oryzae IMF 4014; assay: antimicrobial activity, MIC; conditions: Aspergillus oryzae, IMF4014, Aspergillus oryzae IMF 4014; read-out: MIC
[24] = system: Cladosporium fulvum IAM 5006; assay: antimicrobial activity, MIC; conditions: Fulvia fulva, IAM5006, Cladosporium fulvum IAM 5006; read-out: MIC
[25] = system: Fusarium moniliforme IAM 5062; assay: antimicrobial activity, MIC; conditions: Fusarium verticillioides, IAM5062, Fusarium moniliforme IAM 5062; read-out: MIC
[26] = system: Helminthosporium sesamum IAM 5012; assay: antimicrobial activity, MIC; conditions: Helminthosporium, IAM5012, Helminthosporium sesamum IAM 5012; read-out: MIC
[27] = system: Pyricularia oryzae IAM 5016; assay: microbe, parasite or virus in culture; conditions: Pyricularia oryzae, IAM5016, Pyricularia oryzae IAM 5016
[28] = system: Debaryomyces kloeckeri IFO 0015; assay: antimicrobial activity, MIC; conditions: IFO0015, read-out: MIC
[29] = system: Gibberella fujikuroi IAM 8046; assay: antimicrobial activity, MIC; conditions: Fusarium fujikuroi, IAM8046, Gibberella fujikuroi IAM 8046; read-out: MIC

Row | SMILES | MIC [1] [mg/L] | MIC [2] [mg/L] | MIC [3] [mg/L] | MIC [4] [mg/L] | MIC [5] [mg/L] | MIC [6] [mg/L] | MIC [7] [mg/L] | MIC [8] [mg/L] | MIC [9] [mg/L] | MIC [10] [mg/L] | MIC [11] [mg/L] | MIC [12] [mg/L] | MIC [13] [mg/L] | MIC [14] [mg/L] | MIC [15] [mg/L] | MIC [16] [mg/L] | MIC [17] [mg/L] | MIC [18] [mg/L] | MIC [19] [mg/L] | MIC [20] [mg/L] | also measured
1 | CCCCCCOc1ccccc1C(=CSC)n1ccnc1 (single isomer, unassigned) [Compound 27] | 6.25 (≈ 19.7 µM) | 12.5 (≈ 39.5 µM) | 6.25 (≈ 19.7 µM) | 12.5 (≈ 39.5 µM) | 6.25 (≈ 19.7 µM) | 3.12 (≈ 9.86 µM) | 12.5 (≈ 39.5 µM) | 1.56 (≈ 4.93 µM) | 25 (≈ 79 µM) | 50 (≈ 158 µM) | < 0.2 | < 0.2 | 0.39 (≈ 1.23 µM) | 1.56 (≈ 4.93 µM) | < 0.2 | < 0.2 | < 0.2 | < 0.2 | < 0.2 | < 0.2 | MIC [21]: < 0.2 mg/L; MIC [22]: < 0.2 mg/L; MIC [23]: < 0.2 mg/L; MIC [24]: 3.12 mg/L (≈ 9.86 µM); MIC [25]: < 0.2 mg/L; MIC [26]: < 0.2 mg/L; MIC [27]: < 0.2 mg/L; MIC [28]: 1.56 mg/L (≈ 4.93 µM); MIC [29]: < 0.2 mg/L
2 | CCCCCOc1ccccc1C(=CSCC)n1ccnc1 (single isomer, unassigned) [Compound 34] | 3.12 (≈ 9.86 µM) | 12.5 (≈ 39.5 µM) | 12.5 (≈ 39.5 µM) | 12.5 (≈ 39.5 µM) | 3.12 (≈ 9.86 µM) | 1.56 (≈ 4.93 µM) | 12.5 (≈ 39.5 µM) | 0.39 (≈ 1.23 µM) | 50 (≈ 158 µM) | 50 (≈ 158 µM) | < 0.2 | < 0.2 | 0.78 (≈ 2.46 µM) | 3.12 (≈ 9.86 µM) | < 0.2 | < 0.2 | < 0.2 | < 0.2 | < 0.2 | < 0.2 | MIC [21]: 1.56 mg/L (≈ 4.93 µM); MIC [22]: 1.56 mg/L (≈ 4.93 µM); MIC [23]: 1.56 mg/L (≈ 4.93 µM); MIC [24]: 25 mg/L (≈ 79 µM); MIC [25]: 0.39 mg/L (≈ 1.23 µM); MIC [26]: < 0.2 mg/L; MIC [27]: < 0.2 mg/L; MIC [28]: 0.78 mg/L (≈ 2.46 µM); MIC [29]: < 0.2 mg/L
3 | CCCOc1ccccc1C(=CSCCC)n1ccnc1 (single isomer, unassigned) [Compound 39] | 12.5 (≈ 41.3 µM) | 25 (≈ 82.7 µM) | 25 (≈ 82.7 µM) | 25 (≈ 82.7 µM) | 25 (≈ 82.7 µM) | 12.5 (≈ 41.3 µM) | 25 (≈ 82.7 µM) | 6.25 (≈ 20.7 µM) | 25 (≈ 82.7 µM) | 50 (≈ 165 µM) | 0.39 (≈ 1.29 µM) | 0.78 (≈ 2.58 µM) | 1.56 (≈ 5.16 µM) | 1.56 (≈ 5.16 µM) | 0.39 (≈ 1.29 µM) | 0.39 (≈ 1.29 µM) | 0.39 (≈ 1.29 µM) | < 0.2 | 0.39 (≈ 1.29 µM) | < 0.2 | MIC [21]: 1.56 mg/L (≈ 5.16 µM); MIC [22]: 1.56 mg/L (≈ 5.16 µM); MIC [23]: 0.78 mg/L (≈ 2.58 µM); MIC [24]: 25 mg/L (≈ 82.7 µM); MIC [25]: 0.78 mg/L (≈ 2.58 µM); MIC [26]: 0.39 mg/L (≈ 1.29 µM); MIC [27]: < 0.2 mg/L; MIC [28]: 6.25 mg/L (≈ 20.7 µM); MIC [29]: 0.78 mg/L (≈ 2.58 µM)
4 | CCCCSC=C(c1ccccc1OCCC)n1ccnc1 (single isomer, unassigned) [Compound 46] | 6.25 (≈ 19.7 µM) | 12.5 (≈ 39.5 µM) | 12.5 (≈ 39.5 µM) | 12.5 (≈ 39.5 µM) | 6.25 (≈ 19.7 µM) | 6.25 (≈ 19.7 µM) | 12.5 (≈ 39.5 µM) | 3.12 (≈ 9.86 µM) | 25 (≈ 79 µM) | 50 (≈ 158 µM) | < 0.2 | 0.78 (≈ 2.46 µM) | 1.56 (≈ 4.93 µM) | 1.56 (≈ 4.93 µM) | < 0.2 | < 0.2 | < 0.2 | < 0.2 | < 0.2 | < 0.2 | MIC [21]: 1.56 mg/L (≈ 4.93 µM); MIC [22]: 1.56 mg/L (≈ 4.93 µM); MIC [23]: 0.78 mg/L (≈ 2.46 µM); MIC [24]: 12.5 mg/L (≈ 39.5 µM); MIC [25]: 1.56 mg/L (≈ 4.93 µM); MIC [26]: 1.56 mg/L (≈ 4.93 µM); MIC [27]: < 0.2 mg/L; MIC [28]: 12.5 mg/L (≈ 39.5 µM); MIC [29]: 0.39 mg/L (≈ 1.23 µM)
